Results published in patent US20180002247A1, “METHODS FOR CHIRAL RESOLUTION OF TROLOX” (BIOELECTRON TECHNOLOGY CORPORATION, priority 2014, published 2018).
In brackets after ≈: the same amount, converted by molar mass.

Assay: Solubility assessment of (R)-Trolox in 12 solvents at 40° C.
Format: physicochemical
Settings: for solubility: organic solvent or mixture, thermodynamic from solid
Procedure: (R)-Trolox (97.89% ee, chemical purity>99.99% AUC) (100 mg) was weighed out in 12 different vials. 12 different solvents were added (one volume at a time) to the different vials and the mixture was maintained at 40° C. The volume of each solvent required to dissolve 100 mg of (R)-Trolox was recorded and the solubility was subsequently calculated.

Solubility (in words) (all solvents except for pure water): highly soluble
solubility (solvent 2-MeTHF): 524 mg/mL (≈ 2090 mM)
solubility (solvent 5% water/ACN): 459 mg/mL (≈ 1830 mM)
solubility (solvent 5% water/EtOH): 854 mg/mL (≈ 3410 mM)
solubility (solvent 5% water/IPA): 978 mg/mL (≈ 3910 mM)
solubility (solvent 5% water/MeOH): 1040 mg/mL (≈ 4150 mM)
solubility (solvent ACN): 195 mg/mL (≈ 779 mM)
solubility (solvent EtOAc): 209 mg/mL (≈ 835 mM)
solubility (solvent EtOH): 494 mg/mL (≈ 1970 mM)
solubility (solvent IPA): 523 mg/mL (≈ 2090 mM)
solubility (solvent IPAc): 252 mg/mL (≈ 1010 mM)
solubility (solvent MeOH): 1000 mg/mL (≈ 4010 mM)
Solubility at 40° C. (solvent water): not soluble
Structure (SMILES): Cc1c(C)c2c(c(C)c1O)CCC(C)(C(=O)O)O2 (racemic) [(R)-Trolox, 6-hydroxy-2,5,7,8-tetramethylchroman-2-carboxylic acid]
